Where a name gives a salt, the structure may show the parent alone.
Target: T1, recombinant human baculovirus-expressed GST-tagged FASN (Homo sapiens, UniProt P49327)
T1 construct: GST; host or cells: baculovirus expression system (insect cells implied)
Experiment: FASN enzyme activity assay: fluorescence-based detection of CoA with CPM
Type: biochemical
Conditions: 5 nM FASN, 150 μM NADPH, 10 μM acetyl-CoA, 25 μM malonyl-CoA, 90 minutes incubation
Procedure, shortened: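 IC50 values were fitted (variable-slope sigmoid) to percent inhibition from CPM fluorescence (390/530 nm) reporting free CoA after a 30 min labelling step. The reaction ran 90 min after malonyl-CoA (25 μM) addition, with 10 μM acetyl-CoA, 150 μM NADPH, 5 nM recombinant GST-FASN, 50 mM HEPES pH 7.5 and 0.5% DMSO.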

T1 sequence (P49327 whole entry): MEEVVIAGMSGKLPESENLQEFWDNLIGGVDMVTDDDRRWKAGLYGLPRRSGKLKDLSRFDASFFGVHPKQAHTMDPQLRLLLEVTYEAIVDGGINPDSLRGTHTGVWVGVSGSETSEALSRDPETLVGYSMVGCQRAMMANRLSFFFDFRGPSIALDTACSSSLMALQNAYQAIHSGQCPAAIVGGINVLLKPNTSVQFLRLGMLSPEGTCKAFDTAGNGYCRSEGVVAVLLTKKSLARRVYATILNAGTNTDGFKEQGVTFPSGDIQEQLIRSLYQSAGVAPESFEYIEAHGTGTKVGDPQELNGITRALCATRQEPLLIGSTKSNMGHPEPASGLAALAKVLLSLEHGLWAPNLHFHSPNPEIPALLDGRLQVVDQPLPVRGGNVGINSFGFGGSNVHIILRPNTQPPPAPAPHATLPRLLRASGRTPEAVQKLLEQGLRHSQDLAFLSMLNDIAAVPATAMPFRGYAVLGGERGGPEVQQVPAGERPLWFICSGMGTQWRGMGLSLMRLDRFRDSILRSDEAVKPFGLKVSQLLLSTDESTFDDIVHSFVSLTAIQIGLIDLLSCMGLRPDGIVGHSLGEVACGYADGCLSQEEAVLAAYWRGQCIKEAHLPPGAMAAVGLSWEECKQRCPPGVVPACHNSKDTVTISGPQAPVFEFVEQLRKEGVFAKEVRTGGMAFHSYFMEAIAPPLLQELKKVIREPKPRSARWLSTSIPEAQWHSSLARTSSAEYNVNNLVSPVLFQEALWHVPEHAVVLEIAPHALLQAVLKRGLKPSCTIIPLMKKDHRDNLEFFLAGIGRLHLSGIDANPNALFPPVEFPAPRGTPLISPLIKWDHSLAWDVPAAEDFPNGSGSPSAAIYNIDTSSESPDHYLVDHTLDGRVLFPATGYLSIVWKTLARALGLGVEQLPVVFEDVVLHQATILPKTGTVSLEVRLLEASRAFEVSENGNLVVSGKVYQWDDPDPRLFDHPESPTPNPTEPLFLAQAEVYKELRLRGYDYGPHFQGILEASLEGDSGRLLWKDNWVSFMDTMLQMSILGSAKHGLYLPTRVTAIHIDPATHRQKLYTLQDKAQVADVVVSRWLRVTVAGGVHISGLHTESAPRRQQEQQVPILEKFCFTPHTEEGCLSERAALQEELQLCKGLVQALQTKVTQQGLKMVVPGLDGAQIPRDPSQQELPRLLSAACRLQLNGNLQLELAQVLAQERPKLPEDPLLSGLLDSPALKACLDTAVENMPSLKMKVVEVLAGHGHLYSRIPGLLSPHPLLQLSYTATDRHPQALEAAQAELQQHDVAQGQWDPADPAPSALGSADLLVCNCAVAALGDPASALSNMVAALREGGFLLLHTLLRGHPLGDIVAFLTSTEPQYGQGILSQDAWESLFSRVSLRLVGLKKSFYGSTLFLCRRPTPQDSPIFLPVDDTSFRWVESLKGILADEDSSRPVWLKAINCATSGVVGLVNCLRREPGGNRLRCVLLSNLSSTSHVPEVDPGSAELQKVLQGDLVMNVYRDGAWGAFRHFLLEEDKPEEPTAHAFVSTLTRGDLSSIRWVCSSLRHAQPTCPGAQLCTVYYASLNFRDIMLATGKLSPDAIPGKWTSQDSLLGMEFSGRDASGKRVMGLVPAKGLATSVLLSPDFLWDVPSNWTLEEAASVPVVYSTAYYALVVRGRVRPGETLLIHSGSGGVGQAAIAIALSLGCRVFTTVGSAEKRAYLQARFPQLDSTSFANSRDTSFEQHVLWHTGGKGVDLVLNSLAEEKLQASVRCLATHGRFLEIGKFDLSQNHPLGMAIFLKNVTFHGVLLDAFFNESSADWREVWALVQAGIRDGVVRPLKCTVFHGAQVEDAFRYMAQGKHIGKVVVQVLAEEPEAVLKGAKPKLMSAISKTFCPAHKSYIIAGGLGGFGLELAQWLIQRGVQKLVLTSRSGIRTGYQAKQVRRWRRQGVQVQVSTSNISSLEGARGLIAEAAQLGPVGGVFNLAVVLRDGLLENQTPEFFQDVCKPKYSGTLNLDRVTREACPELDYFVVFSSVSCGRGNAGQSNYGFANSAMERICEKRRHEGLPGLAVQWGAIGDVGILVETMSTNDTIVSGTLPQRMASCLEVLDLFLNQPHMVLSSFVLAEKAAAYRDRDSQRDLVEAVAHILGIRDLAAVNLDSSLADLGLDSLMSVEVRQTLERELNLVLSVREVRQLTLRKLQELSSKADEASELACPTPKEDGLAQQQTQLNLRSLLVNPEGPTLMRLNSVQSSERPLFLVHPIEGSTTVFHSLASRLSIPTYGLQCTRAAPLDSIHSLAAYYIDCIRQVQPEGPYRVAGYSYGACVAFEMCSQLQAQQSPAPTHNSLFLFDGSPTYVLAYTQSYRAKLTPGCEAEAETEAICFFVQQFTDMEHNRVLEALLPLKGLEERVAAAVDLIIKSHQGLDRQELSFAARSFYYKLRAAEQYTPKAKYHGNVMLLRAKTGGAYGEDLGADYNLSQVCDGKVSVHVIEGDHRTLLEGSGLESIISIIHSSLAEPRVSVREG

| SMILES | IC50 |
| --- | --- |
| CCC(=O)N1CCC(O)(Cc2ccc(-c3ccc4cnccc4c3)cc2)CC1 [Example 160, 1-(4-hydroxy-4-(4-(isoquinolin-6-yl)benzyl)piperidin-1-yl)propan-1-one] | 100 to 999 nM |
| CC(C)C(=O)N1CCC(O)(Cc2ccc(-c3ccc4occc4c3)cc2)CC1 [Example 153, 1-(4-(4-(benzofuran-5-yl)benzyl)-4-hydroxypiperidin-1-yl)-2-methylpropan-1-one] | 1000 to 10000 nM |
| CCC(=O)N1CCC(C(O)c2ccc(-c3ccc4cnccc4c3)cc2F)CC1 (stereo not shown) [Example 128, 1-{4-[(2-Fluoro-4-isoquinolin-6-yl-phenyl)-hydroxy-methyl]-piperidin-1-yl}-propan-1-one] | 1 to 99 nM |
| O=C(C1CC1)N1CC=C(Cc2ccc(-c3ccc4cccnc4c3)cc2)CC1 [Example 174] | 100 to 999 nM |
| CCC(=O)N1CCC(F)(C(OCCOC)c2ccc(-c3ccc4cccnc4c3C)cc2)CC1 (stereo not shown) [Example 226, 1-(4-Fluoro-4-{(2-methoxy-ethoxy)-[4-(8-methyl-quinolin-7-yl)-phenyl]-methyl}-piperidin-1-yl)-propan-1-one] | 1 to 99 nM |
| O=C(C1CCCO1)N1CC=C(Cc2ccc(-c3cnc4ccccc4c3)cc2)CC1 (stereo in doubt) [Example 190, (R)-(4-(4-(quinolin-3-yl)benzyl)-5,6-dihydropyridin-1(2H)-yl)(tetrahydrofuran-2-yl)methanone] | 1 to 99 nM |
| CCC(=O)N1CCC(C(=O)c2ccc(-c3cnc4ccccc4c3)cc2F)CC1 [Example 143, 1-[4-(2-Fluoro-4-quinolin-3-yl-benzoyl)piperidin-1-yl]propan-1-one] | 1 to 99 nM |
| CCC(=O)N1CCC(C(N)c2ccc(-c3cnc4ccccc4c3)cc2)CC1 (stereo not shown) [Example 43, 1-{4-[amino-(4-quinolin-3-yl-phenyl)-methyl]-piperidin-1-yl}-propan-1-one] | 1000 to 10000 nM |
| O=C([C@H]1CCCO1)N1CCC(C(OCCN2CCCC2)c2ccc(-c3cnc4ccccc4c3)cc2)CC1 (stereo partly drawn) [Example 88, {4-[(2-Pyrrolidin-1-yl-ethoxy)-(4-quinolin-3-yl-phenyl)-methyl]-piperidin-1-yl}-(R)-tetrahydrofuran-2-yl-methanone] | 100 to 999 nM |
| Cc1c(-c2ccc(CC3CCN(C(=O)[C@H]4CCCO4)CC3)cc2)ccc2nccn12 [Example 93, {4-[4-(5-Methyl-imidazo[1,2-a]pyridin-6-yl)-benzyl]-piperidin-1-yl}-(R)-tetrahydrofuran-2-yl-methanone] | 1 to 99 nM |
| CCC(=O)N1CCC(C(CC)(OC)c2ccc(-c3ccc4cccnc4c3)cc2)CC1 (stereo not shown) [Example 216, 1-{4-[1-Methoxy-1-(4-quinolin-7-yl-phenyl)-propyl]-piperidin-1-yl}-propan-1-one] | 1000 to 10000 nM |
| Cc1c(-c2ccc(CC3=CCN(C(=O)[C@H]4CCCO4)CC3)cc2)ccc2cccnc12 [Example 200, (R)-(4-(4-(8-methylquinolin-7-yl)benzyl)-3,6-dihydropyridin-1(2H)-yl)(tetrahydrofuran-2-yl)methanone] | 1 to 99 nM |
| Cc1nccc2cc(-c3ccc(C(OCCN4CCCC4)C4CCN(C(=O)[C@H]5CCCO5)CC4)cc3)ccc12 (stereo partly drawn) [Example 90, {4-[[4-(1-Methylisoquinolin-6-yl)phenyl]-(2-pyrrolidin-1-yl-ethoxy)-methyl]-piperidin-1-yl}-(R)-tetrahydrofuran-2-yl-methanone] | 100 to 999 nM |
| Cc1c(-c2ccc(CC3CCN(C(=O)C4CC4)CC3)cc2)cnc2ccccc12 [Example 13, Cyclopropyl-{4-[4-(4-methylquinolin-3-yl)-benzyl]-piperidin-1-yl}-methanone] | 1 to 99 nM |
| CN(C)C(=O)N1CCC(C2(c3ccc(-c4ccc5ncccc5c4)cc3)OCCO2)CC1 [Example 103, 4-[2-(4-Quinolin-6-yl-phenyl)-1,3-dioxolan-2-yl]-piperidine-1-carboxylic acid dimethylamide] | 1000 to 10000 nM |
| O=C(C1CC1)N1CCC(C2(c3ccc(-c4ccc5cccnc5c4)cc3)CC2)CC1 [Example 45, Cyclopropyl-{4-[1-(4-quinolin-7-yl-phenyl)-cyclopropyl]-piperidin-1-yl}-methanone] | 100 to 999 nM |
| CCNC(=O)N1CCC(Cc2ccc(-c3ccc4cccnc4c3C)cc2)CC1 [Example 229, N-ethyl-4-[[4-(8-methyl-7-quinolyl)phenyl]methyl]piperidine-1-carboxamide] | 1 to 99 nM |
| Cc1c(-c2ccc(C(OCCCN3CCOCC3)C3CCN(C(=O)[C@H]4CCCO4)CC3)cc2)cnc2ccccc12 (stereo partly shown) [Example 87] | 1 to 99 nM |
| CCC(OC)(c1ccc(-c2cnc3ccccc3c2)cc1)C1CCN(C(=O)C2CC2)CC1 (stereo not shown) [Example 211, Cyclopropyl-{4-[1-methoxy-1-(4-quinolin-3-yl-phenyl)-propyl]-piperidin-1-yl}-methanone] | 1000 to 10000 nM |
| Cc1c(-c2ccc(CC3CCN(C(=O)C4CC4)CC3)cc2)ccc2nccn12 [Example 95, Cyclopropyl-{4-[4-(5-methylimidazo[1,2-a]pyridin-6-yl)-benzyl]-piperidin-1-yl}-methanone] | 100 to 999 nM |
| CCC(=O)N1CCC(C(C)c2ccc(-c3cnc4ccccc4c3)cc2)CC1 (single isomer, unassigned) [Example 67, 1-{4-[1-(4-Quinolin-3-yl-phenyl)-ethyl]-piperidin-1-yl}-propan-1-one] | 1 to 99 nM |
| O=C(C1CC1)N1CC=C(Cc2ccc(-c3cnc4ccccc4c3)cc2)CC1 [Example 172, Cyclopropyl(4-(4-(quinolin-3-yl)benzyl)-5,6-dihydropyridin-1(2H)-yl)methanone] | 100 to 999 nM |
| CCC(OC)(c1ccc(-c2ccc3cccnc3c2)cc1)C1CCN(C(=O)C2CC2)CC1 (stereo not shown) [Example 217, Cyclopropyl-{4-[1-methoxy-1-(4-quinolin-7-yl-phenyl)-propyl]-piperidin-1-yl}-methanone] | 1000 to 10000 nM |
| O=C(C1CC1)N1CCC(C2(c3ccc(-c4cnc5ccccc5c4)cc3)CC2)CC1 [Example 44, Cyclopropyl-{4-[1-(4-quinolin-3-yl-phenyl)-cyclopropyl]-piperidin-1-yl}-methanone] | 100 to 999 nM |
| Cc1c(-c2ccc(CC3(F)CCN(C(=O)C4CC4)CC3)cc2)ccc2cccnc12 [Example 183, Cyclopropyl(4-fluoro-4-(4-(8-methylquinolin-7-yl)benzyl)piperidin-1-yl)methanone] | 1 to 99 nM |
| CCC(=O)N1CCC(C(NC(C)=O)c2ccc(-c3cnc4ccccc4c3)cc2)CC1 (stereo not shown) [Example 53, N-[(1-Propionylpiperidin-4-yl)-(4-quinolin-3-yl-phenyl)-methyl]-acetamide] | 1000 to 10000 nM |

System: not given
Experiment: not given
Conditions: not given

| SMILES | melting point |
| --- | --- |
| CCC(=O)N1CCC(C(C)c2ccc(-c3cnc4ccccc4c3)cc2)CC1 (stereo not shown) (as salt: HCl) [Example 39, 1-(4-(1-(4-(quinolin-3-yl)phenyl)ethyl)piperidin-1-yl)propan-1-one] | 178 to 180 °C |
| CCC(=O)N1CCC(O)(Cc2ccc(-c3ccc4cnccc4c3)cc2)CC1 [Example 160, 1-(4-hydroxy-4-(4-(isoquinolin-6-yl)benzyl)piperidin-1-yl)propan-1-one] | 94 °C |
| CC(C)C(=O)N1CCC(O)(Cc2ccc(-c3ccc4occc4c3)cc2)CC1 [Example 153, 1-(4-(4-(benzofuran-5-yl)benzyl)-4-hydroxypiperidin-1-yl)-2-methylpropan-1-one] | 129 °C |
| CCC(=O)N1CCC(C(C)c2ccc(-c3cnc4ccccc4c3)cc2)CC1 (single isomer, unassigned) (as salt: HCl) [Example 68, 1-{4-[1-(4-Quinolin-3-yl-phenyl)-ethyl]-piperidin-1-yl}-propan-1-one] | 219 to 221 °C |
| CCC(=O)N1CCC(C(C)c2ccc(-c3cnc4ccccc4c3)cc2)CC1 (single isomer, unassigned) (as salt: HCl) [Example 67, 1-{4-[1-(4-Quinolin-3-yl-phenyl)-ethyl]-piperidin-1-yl}-propan-1-one] | 215 to 219 °C |
